The results in this text go back to ChEMBL document CHEMBL3868610, “Novel bicyclo[3.1.0]hexane analogs as antagonists of metabotropic glutamate 2/3 receptors for the treatment of depression” (Bioorg Med Chem Lett, 2016).

Assay [1] in a line: Antidepressant activity in ip dosed NIH Swiss Webster mouse assessed as reduction in immobility time administered 30 mins prior to evaluation measured on the last 4 mins of the 6 mins observation time by forced swim test. Type of assay: functional, organism-based.
Assay [2] concerns the target T1, Metabotropic glutamate receptor 3 (Homo sapiens, UniProt Q14832). Kind of assay: Antagonist activity at recombinant human mGlu3 receptor expressed in hamster AV12 cells assessed as inhibition of DCG-4-inhibited forskolin-stimulated cAMP formation up to 25 uM after 20 mins by HTRF assay relative to control. The format is functional, cell-based. (In general: Changes in cAMP serve as a functional read-out for many G protein-coupled receptors.)
Target sequence in this assay (Q14832 23-879 limits assumed): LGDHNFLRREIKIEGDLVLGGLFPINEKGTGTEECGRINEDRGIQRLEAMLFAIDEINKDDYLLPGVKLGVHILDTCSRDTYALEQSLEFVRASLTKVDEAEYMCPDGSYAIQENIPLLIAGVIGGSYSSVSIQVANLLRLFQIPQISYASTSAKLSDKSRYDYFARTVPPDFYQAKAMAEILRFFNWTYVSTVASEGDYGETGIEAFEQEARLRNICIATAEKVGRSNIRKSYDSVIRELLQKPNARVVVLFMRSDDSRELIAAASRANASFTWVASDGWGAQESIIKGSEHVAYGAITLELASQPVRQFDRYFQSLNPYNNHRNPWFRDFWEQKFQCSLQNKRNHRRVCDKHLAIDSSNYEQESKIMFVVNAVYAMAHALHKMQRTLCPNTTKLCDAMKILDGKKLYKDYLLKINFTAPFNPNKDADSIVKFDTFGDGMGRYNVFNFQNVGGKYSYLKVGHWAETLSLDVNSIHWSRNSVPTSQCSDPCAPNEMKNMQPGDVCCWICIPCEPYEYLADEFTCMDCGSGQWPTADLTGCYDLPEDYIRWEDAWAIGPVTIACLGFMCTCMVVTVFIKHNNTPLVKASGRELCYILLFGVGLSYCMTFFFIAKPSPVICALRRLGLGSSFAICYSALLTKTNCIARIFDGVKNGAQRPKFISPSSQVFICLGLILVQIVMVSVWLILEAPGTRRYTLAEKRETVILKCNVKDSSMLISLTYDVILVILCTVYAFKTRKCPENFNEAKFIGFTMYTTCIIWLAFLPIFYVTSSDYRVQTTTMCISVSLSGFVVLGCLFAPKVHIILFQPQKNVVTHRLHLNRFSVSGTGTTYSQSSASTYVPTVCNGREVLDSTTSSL

Assay [3] concerns the target T1, Metabotropic glutamate receptor 3. The experiment in a line: Antagonist activity at recombinant human mGlu3 receptor expressed in hamster AV12 cells co-expressing human EAAT1 assessed as reduction of DCG-4-inhibited forskolin-stimulated cAMP formation after 20 mins by HTRF assay. Type of assay: functional, cell-based.
Assay [4] has as its target T2, Metabotropic glutamate receptor 2 (Homo sapiens, UniProt Q14416). Kind of assay: Antagonist activity at recombinant human mGlu2 receptor expressed in hamster AV12 cells assessed as inhibition of DCG-4-inhibited forskolin-stimulated cAMP formation up to 25 uM after 20 min by HTRF assay relative to control. Type of assay: functional, cell-based.
Target sequence in this assay (Q14416 19-872 limits assumed): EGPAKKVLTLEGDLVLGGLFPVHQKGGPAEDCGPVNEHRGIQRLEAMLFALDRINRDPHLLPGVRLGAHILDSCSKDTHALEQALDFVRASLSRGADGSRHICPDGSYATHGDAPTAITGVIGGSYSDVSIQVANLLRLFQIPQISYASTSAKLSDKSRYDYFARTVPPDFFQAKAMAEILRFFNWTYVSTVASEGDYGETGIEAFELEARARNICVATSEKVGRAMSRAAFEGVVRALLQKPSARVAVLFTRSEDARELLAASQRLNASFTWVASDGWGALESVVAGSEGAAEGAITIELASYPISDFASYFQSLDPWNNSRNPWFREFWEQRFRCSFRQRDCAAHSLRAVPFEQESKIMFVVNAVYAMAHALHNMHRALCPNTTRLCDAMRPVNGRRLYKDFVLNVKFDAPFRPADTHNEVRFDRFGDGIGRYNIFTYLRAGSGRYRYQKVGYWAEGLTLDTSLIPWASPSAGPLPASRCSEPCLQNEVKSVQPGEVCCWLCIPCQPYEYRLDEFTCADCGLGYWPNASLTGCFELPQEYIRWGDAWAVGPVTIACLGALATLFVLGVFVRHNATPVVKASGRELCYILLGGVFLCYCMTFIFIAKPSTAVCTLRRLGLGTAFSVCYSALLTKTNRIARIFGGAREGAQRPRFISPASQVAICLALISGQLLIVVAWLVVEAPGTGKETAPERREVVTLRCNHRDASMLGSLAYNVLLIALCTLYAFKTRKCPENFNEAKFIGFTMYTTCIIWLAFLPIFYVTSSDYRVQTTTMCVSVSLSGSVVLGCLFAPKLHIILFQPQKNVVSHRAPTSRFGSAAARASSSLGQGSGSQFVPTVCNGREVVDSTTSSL
Assay [5] addresses T2, Metabotropic glutamate receptor 2. Kind of assay: Antagonist activity at recombinant human mGlu2 receptor expressed in hamster AV12 cells co-expressing human EAAT1 assessed as reduction of DCG-4-inhibited forskolin-stimulated cAMP formation after 20 mins by HTRF assay. The format is functional, cell-based.
A short description of assay [6]: Antidepressant activity in ip dosed NIH Swiss Webster mouse assessed as reduction in immobility time administered 30 mins prior to evaluation measured on the last 4 mins of the 6 mins observation time by forced swim test realtive to control. The format is functional, organism-based.
For assay [7], the target named is T1, Metabotropic glutamate receptor 3. Kind of assay: Displacement of [3H]-LY459477 from human mGlu3 receptor expressed in hamster AV12 cell membranes co-expressing human EAAT1 after 90 mins by liquid scintillation counting method.
Target sequence in this assay (Q14832 whole entry): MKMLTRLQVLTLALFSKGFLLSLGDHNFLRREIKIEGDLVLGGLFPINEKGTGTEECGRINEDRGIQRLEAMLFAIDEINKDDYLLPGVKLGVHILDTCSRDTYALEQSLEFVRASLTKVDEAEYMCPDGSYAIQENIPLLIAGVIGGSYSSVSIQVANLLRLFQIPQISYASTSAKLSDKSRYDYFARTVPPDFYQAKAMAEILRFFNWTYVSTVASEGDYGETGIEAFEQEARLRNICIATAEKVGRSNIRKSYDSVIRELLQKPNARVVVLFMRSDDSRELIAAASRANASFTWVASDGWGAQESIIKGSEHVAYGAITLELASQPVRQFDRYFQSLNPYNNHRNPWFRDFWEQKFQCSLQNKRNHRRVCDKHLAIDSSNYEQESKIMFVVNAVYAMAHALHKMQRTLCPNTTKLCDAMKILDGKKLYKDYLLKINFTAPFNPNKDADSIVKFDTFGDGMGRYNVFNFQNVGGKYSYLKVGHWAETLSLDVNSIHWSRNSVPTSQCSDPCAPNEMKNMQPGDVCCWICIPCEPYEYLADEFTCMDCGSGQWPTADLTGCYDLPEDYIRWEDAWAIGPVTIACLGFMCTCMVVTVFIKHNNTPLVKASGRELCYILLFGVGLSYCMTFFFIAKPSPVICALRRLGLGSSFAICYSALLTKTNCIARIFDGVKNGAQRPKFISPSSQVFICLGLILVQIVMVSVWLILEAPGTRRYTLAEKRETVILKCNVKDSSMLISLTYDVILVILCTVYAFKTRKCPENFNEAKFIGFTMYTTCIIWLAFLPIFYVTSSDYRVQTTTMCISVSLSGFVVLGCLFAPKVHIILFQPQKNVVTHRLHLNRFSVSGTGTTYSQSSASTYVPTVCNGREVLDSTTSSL
The target of assay [8] is T2, Metabotropic glutamate receptor 2. The experiment in a line: Displacement of [3H]-LY459477 from human mGlu2 receptor expressed in hamster AV12 cell membranes co-expressing human EAAT1 after 90 mins by liquid scintillation counting method. For orientation: Displacement assays read how much labelled ligand stays bound in the presence of the test substance.
Target sequence in this assay (Q14416 whole entry): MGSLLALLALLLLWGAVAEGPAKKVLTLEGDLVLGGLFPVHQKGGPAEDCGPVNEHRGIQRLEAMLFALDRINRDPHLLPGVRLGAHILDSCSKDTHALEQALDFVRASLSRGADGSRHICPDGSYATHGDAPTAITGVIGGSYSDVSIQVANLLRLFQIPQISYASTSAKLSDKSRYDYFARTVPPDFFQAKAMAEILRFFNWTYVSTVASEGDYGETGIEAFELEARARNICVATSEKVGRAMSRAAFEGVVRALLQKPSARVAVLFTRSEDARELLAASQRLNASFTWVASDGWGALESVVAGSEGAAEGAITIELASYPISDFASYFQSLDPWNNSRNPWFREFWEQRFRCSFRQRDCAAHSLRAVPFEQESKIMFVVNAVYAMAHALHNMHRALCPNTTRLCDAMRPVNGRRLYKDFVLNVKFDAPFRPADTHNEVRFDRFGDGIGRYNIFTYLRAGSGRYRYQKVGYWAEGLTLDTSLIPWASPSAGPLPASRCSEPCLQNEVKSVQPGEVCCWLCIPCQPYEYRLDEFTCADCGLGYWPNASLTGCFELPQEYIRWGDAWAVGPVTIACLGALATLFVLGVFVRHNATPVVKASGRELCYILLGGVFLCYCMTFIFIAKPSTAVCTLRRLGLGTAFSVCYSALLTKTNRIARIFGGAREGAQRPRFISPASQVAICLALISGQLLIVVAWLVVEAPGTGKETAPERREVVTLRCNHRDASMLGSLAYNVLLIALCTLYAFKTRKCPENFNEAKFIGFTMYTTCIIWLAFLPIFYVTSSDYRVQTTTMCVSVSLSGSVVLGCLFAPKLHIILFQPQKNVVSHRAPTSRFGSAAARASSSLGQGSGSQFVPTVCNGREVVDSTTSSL

The source made the active and inactive calls. The rule behind the calls is not given here.

As for `COC(=O)N[C@H]1[C@H]2[C@H](C(=O)O)[C@H]2[C@](N)(C(=O)O)[C@@H]1OCc1ccc(Cl)c(Cl)c1`, the ED60 in assay [1] turned out to be 7.95 mg/kg. The MED in assay [1] was found to be 10 mg/kg. Also, the inhibition result in assay [2] and in assay [4] was “Active” each time. For the same compound, the IC50 in assay [3] was 20.5 nM; in assay [5] it was 18.8 nM. Also, the Imax in assay [3] and in assay [5] was over 94% throughout. Also, in assay [6], the maximal response (Emax) is 46%.

Consider `N[C@]1(C(=O)O)[C@@H]2[C@@H](C(=O)O)[C@@H]2[C@H](F)[C@H]1OCc1ccc(Cl)c(Cl)c1`, for which the inhibition entry in assay [2] was “Active”. In assay [3], the IC50 is 71 nM and the Imax was over 94%.

As to `Cn1ncnc1S[C@H]1[C@H]2[C@H](C(=O)O)[C@H]2[C@](N)(C(=O)O)[C@@H]1OCc1ccc(Cl)c(Cl)c1`, in assay [1], the ED60 amounted to 7.3 mg/kg. In assay [1], the MED is 10 mg/kg. Moreover, the inhibition result in assay [2] and in assay [4] was “Active” in each case. Moreover, the IC50 in assay [3] was 29.6 nM; in assay [5] it was 19.9 nM. Besides, the Imax in assay [3] and in assay [5] was over 94% throughout. Further, the maximum response (Emax) in assay [6] stood at 47%.

Regarding `N[C@]1(C(=O)O)[C@@H]2[C@@H](C(=O)O)[C@@H]2[C@@H](O)[C@H]1OCc1ccccc1`, in assay [2], the inhibition entry was “Active”. In assay [3], the IC50 is 239 nM and the Imax is over 94%.

In the case of `N[C@]1(C(=O)O)[C@@H]2[C@@H](C(=O)O)[C@@H]2[C@H](Sc2nc[nH]n2)[C@H]1OCc1ccc(Cl)c(Cl)c1`, the Ki in assay [7] worked out at 2.7 nM; in assay [8], 7.43 nM. In addition, in assay [1], the ED60 was determined as 2.08 mg/kg. Further, the MED in assay [1] amounted to 3 mg/kg. Further, the inhibition result in assay [2] and in assay [4] was “Active” throughout. Moreover, the IC50 in assay [3] stood at 23.5 nM; in assay [5] it was 12.7 nM. The Imax in assay [3] and in assay [5] was over 94% throughout. The Emax in assay [6] is 62%.

As for `N[C@]1(C(=O)O)[C@@H]2[C@@H](C(=O)O)[C@@H]2[C@@H](O)[C@H]1OCc1cccc(Cl)c1Cl`, the inhibition result in assay [2] was “Active”. In assay [3], the concentration for half-maximal inhibition (IC50) was determined as 83.2 nM and the Imax was over 94%.

Consider `N[C@]1(C(=O)O)[C@@H]2[C@@H](C(=O)O)[C@@H]2[C@@H](O)[C@H]1OCc1cc(Cl)ccc1Cl`, for which the inhibition result in assay [2] is “Active”. Further, in assay [3], the half-inhibitory concentration (IC50) was determined as 185 nM and the Imax was over 94%.

As to `N[C@@]1(C(=O)O)[C@H](Cc2ccc(F)c(Cl)c2)C[C@H]2[C@H](C(=O)O)[C@H]21` (racemic), the concentration for half-maximal inhibition (IC50) in assay [3] amounted to 76.1 nM.

For the compound `N[C@]1(C(=O)O)[C@@H]2[C@@H](C(=O)O)[C@@H]2[C@@H](O)[C@H]1OCc1ccc(Cl)c(F)c1`, the inhibition result in assay [2] was “Active”. For the same compound, in assay [3], the IC50 was 127 nM and the Imax was over 94%.

For the compound `N[C@H]1[C@H]2[C@H](C(=O)O)[C@H]2[C@](N)(C(=O)O)[C@@H]1OCc1ccc(Cl)c(Cl)c1`, the inhibition result in assay [2] and in assay [4] was “Active” each time. Also, the values for the IC50 in assay [3] and in assay [5] were 1070 nM and 1130 nM, respectively. Further, the Imax in assay [3] and in assay [5] was over 94% throughout.

In the case of `Cc1cc(CO[C@@H]2[C@H](O)[C@H]3[C@H](C(=O)O)[C@H]3[C@]2(N)C(=O)O)ccc1F`, the inhibition entry in assay [2] was “Active”. In addition, in assay [3], the IC50 stood at 85 nM and the Imax was over 94%.

On to `N[C@]1(C(=O)O)[C@@H]2[C@@H](C(=O)O)[C@@H]2[C@@H](O)[C@H]1OCc1cccc(Cl)c1`, for which the inhibition result in assay [2] and in assay [4] was “Active” throughout. Moreover, the IC50 in assay [3] was determined as 178 nM; in assay [5] it was 280 nM. Also, the Imax in assay [3] and in assay [5] was over 94% throughout.

Turning to `N[C@]1(C(=O)O)[C@@H]2[C@@H](C(=O)O)[C@@H]2[C@@H](O)[C@H]1OCc1ccc(Cl)cc1`, the inhibition result in assay [2] and in assay [4] was “Active” each time. The results for the IC50 in assay [3] and in assay [5] were 145 nM and 210 nM, respectively. Further, the Imax in assay [3] and in assay [5] was over 94% in each case.

Regarding `N[C@@]1(C(=O)O)C[C@H](O)[C@H]2[C@H](C(=O)O)[C@H]21`, the Ki in assay [8] was found to be 230 nM.

For the compound `CC(=O)N[C@H]1[C@H]2[C@H](C(=O)O)[C@H]2[C@](N)(C(=O)O)[C@@H]1OCc1ccc(Cl)c(Cl)c1`, in assay [1], the ED60 came out at 9.1 mg/kg and the MED came out at 30 mg/kg. In addition, the inhibition entry in assay [2] is “Active”. In assay [3], the half-inhibitory concentration (IC50) worked out at 14.3 nM and the Imax is over 94%. Also, the inhibition result in assay [4] is “Active”. Besides, in assay [5], the IC50 was determined as 26.1 nM and the Imax is over 94%. The Emax in assay [6] stood at 41%.

Take `N[C@]1(C(=O)O)[C@@H]2[C@@H](C(=O)O)[C@@H]2[C@H](Sc2ncc[nH]2)[C@H]1OCc1ccc(Cl)c(Cl)c1`: in assay [1], the ED60 turned out to be 9.1 mg/kg and the MED is 10 mg/kg. Further, the inhibition result in assay [2] is “Active”. Besides, in assay [3], the IC50 came out at 38.5 nM and the Imax is over 94%. The maximal response (Emax) in assay [6] stood at 41%.

Compound `N[C@@]1(C(=O)O)C[C@@H](O)[C@H]2[C@H](C(=O)O)[C@H]21` had an inhibitory constant (Ki) in assay [8] of 166 nM.

Regarding `N[C@]1(C(=O)O)[C@@H]2[C@@H](C(=O)O)[C@@H]2[C@@H](O)[C@H]1OCc1ccc(Cl)c(Cl)c1`, the inhibition result in assay [2] and in assay [4] was “Active” each time. Further, the IC50 in assay [3] turned out to be 153 nM; in assay [5], 169 nM. Further, the Imax in assay [3] and in assay [5] was over 94% in each case. The same compound registered an inhibitory constant (Ki) in assay [8] of 76 nM.

Take `[N-]=[N+]=N[C@H]1[C@H]2[C@H](C(=O)O)[C@H]2[C@](N)(C(=O)O)[C@@H]1OCc1ccc(Cl)c(Cl)c1`: the inhibition result in assay [2] and in assay [4] was “Active” in each case. In addition, the IC50 stood at 54.1 nM in assay [3] and 34.5 nM in assay [5]. Besides, the Imax in assay [3] and in assay [5] was over 94% in each case.

Broadly, the IC50 is the point on the concentration scale where inhibition reaches its midpoint. The Emax is the size of the effect at its maximum, as opposed to the concentration needed. By Ki is commonly meant a measure of affinity in units of concentration, obtained from inhibition or displacement. A higher Ki goes with a looser hold on the target.
